ChEMBL document CHEMBL1201862, “PubChem BioAssay data set” (2004)
Activity calls are given as the source filed them.

Tests used:
HEK293 [1] = assay: SAR Analysis of small molecule inhibitors of T-cell specific antigen receptor-induced NF-kB activation in a HEK-293T cell line using a luminescence assay - Set 2. [Related pubchem assays (depositor defined):AID435003, AID435012, AID489026]; assay type: functional, cell-based; settings: Homo sapiens
HEK293 [2] = assay: HEK293T cell viability loss, resazurin readout – resazurin fluorescence, cytotoxicity control for NF-kB activator project, SAR follow-up (AID 493251); assay type: functional, cell-based
Jurkat = assay: SAR Analysis of small molecule inhibitors of T-cell specific antigen receptor-induced NF-kB activation in a Jurkat cell line using a luminescence assay - Set 2. [Related pubchem assays (depositor defined):AID435003, AID435012, AID465]; assay type: functional, cell-based; settings: Homo sapiens
Vero [3] = assay: cells; assay type: functional; settings: Chlorocebus sabaeus
Vero [4] = assay: cells; assay type: functional, cell-based; settings: Chlorocebus sabaeus
[5] = HEK-293T cell viability reduction – luminescence, B-cell screen hits, cytotoxicity control for BCR NF-kB inhibitor project, dose response (AID 489021); assay type: functional, cell-based;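 further: HEK-293T cells carrying an NF-kB luciferase reporter; cells exposed to compound for about 14 hours before viability readout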

Row | Structure (SMILES) | IC50 (HEK293 [1]) | IC50 (HEK293 [2]; Homo sapiens, HEK293) | IC50 (Jurkat) | CC50 (Vero [3]) | IC50 (Vero [4]) | IC50 [5] | IC50 (HEK293 [2]; hek293)
1 | CCCOc1ccc(C(=O)Nc2ccc(NC(=O)c3cc4ccccc4o3)cc2)cc1 | > 80 µM (inactive) | > 80 µM (inactive) | > 79 µM (inactive) | – | – | – | –
2 | O=c1c2ccccc2nc(/C=C/c2cc(Br)ccc2O)n1CCCO | – | – | – | 22.8 µM (active) | > 25 µM (active) | – | –
3 | CCNC(=O)CCc1nc(-c2ccc(C(C)(C)C)cc2)no1 | 34 µM (inactive) | 76.1 µM (inactive) | > 79 µM (inactive) | – | – | > 80 µM (inactive) | 79.3 µM (inactive)
